Test results as given in patent publication US20030229044A1, “Use of statins and other immunomodulatory agents in the treatment of autoimmune disease” (priority 2002, published 2003).
Entries after “also recorded” stand apart in the source; their conditions may differ.

How the values were obtained:
[1] = system: STAT6; test: Western blot for STAT6 phosphorylation in draining lymph node cells; assay type: in vivo, mouse; conditions: lymph nodes of SJL/J mice, 1 mg/kg and 10 mg/kg, 10 days after EAE induction; PBS: none detectable
Description: All procedures were handled on ice. As a positive control, lymph node cells from naive mice were isolated and cultured for one hour with mouse recombinant IL-4 (10 ng/ml) or INF-γ (100 units/ml), for STAT6 and STAT4 expression respectively. Protein concentrations were determined by BCA protein assay (Pierce). Lysate was added to 3×SDS loading buffer (Cell Signaling Technology) with 40 mM DTT. Products were separated by electrophoresis on a 4-15% SDS-PAGE gradient gel (BioRad). Pre-stained markers (Invitrogen) were used to determine MW. Gels were blotted to PVDF membranes at 100 V in 25 mM Tris, 192 mM glycine and 20% (v/v) methanol, then blocked 1 hr at RT with Tris-buffered saline (TBS) containing 0.1% Tween-20 and 5% nonfat dry milk. After washing in TBS and 0.1% Tween 20, membranes were hybridized overnight at 4° C. with anti-phospho-STAT6 Antibody or anti-phospho-STAT4 antibody (Zymed, South San Francisco, Calif.) diluted 1:1000 in TBS, 0.1% Tween 20 and 5% BSA, the membranes were then processed by ECL Plus prebetween protocol (Amersham Life Sciences) for visualization of the bands by chemiluminescence. […]

[2] = system: PLP p139-151-induced EAE in SJL/J mice; test: PLP p139-151-induced chronic relapsing EAE in SJL/J mice; assay type: in vivo, mouse
Description: (§1) Animals. Female SJL/J, B10.PL and C57BL/6 mice (8 to 12-week-old) were purchased from the Jackson Laboratory (Bar Harbor, Me.). MBP Ac 1-11 transgenic (tg) TCR mice were backcrossed with B10.PL mice to obtain susceptibility to EAE. All animal protocols were approved by the Division of comparative Medicine at Stanford and in accordance with the National Institutes of Health guidelines.
(§2) Peptides. Peptides were synthesized on a peptide synthesizer (model 9050; MilliGen, Burlington, Mass.) by standard 9-fluorenylmethoxycarbonyl chemistry. Peptides were purified by HPLC. Structures were confirmed by amino acid analysis and mass spectroscopy.
(§3) EAE Induction. Relapsing remitting EAE was induced in SJL/J mice with 100 μg of PLP139-151 peptide, chronic progressive EAE was induced either in C57BL/6 or MBP Ac1-11 TCR Tg mice with 100 μg of MOG35-55 peptide or 100 μg of MBP Ac1-11 peptide, respectively. All peptides were dissolved in PBS at a concentration of 2 mg/ml and emulsified with an equal volume of CFA, which consists of incomplete Freund's adjuvant supplemented with 4 mg/ml heat-killed mycobacterium tuberculosis H37Ra (Difco Laboratories, Detroit, Mich.). […] Mice were clinically scored as follows: 0, no paralysis; 1, tail weakness or paralysis; 2, hindlimb weakness or paralysis; 3, hindlimb paralysis and forelimb weakness; 4, hindlimb and forelimb paralysis; and 5, moribund or death. […]

[3] = system: MHC II expression (CIITA p IV gene); conditions: through the effect on the CIITA p IV gene; cited from earlier work
[4] = system: MOG p35-55-induced EAE in C57BL/6 mice; test: MOG p35-55-induced chronic EAE in C57BL/6 mice; assay type: in vivo, mouse
Description: as §1, §2, §3

[5] = system: MBP Ac1-11-induced EAE in MBP Ac1-11 TCR Tg mice; test: MBP Ac1-11-induced acute EAE in MBP Ac1-11 Tg mice; assay type: in vivo, mouse
Description: as §1, §2
EAE Induction. […] All peptides were dissolved in PBS at a concentration of 2 mg/ml and emulsified with an equal volume of CFA, which consists of incomplete Freund's adjuvant supplemented with 4 mg/ml heat-killed mycobacterium tuberculosis H37Ra (Difco Laboratories, Detroit, Mich.). Mice were injected subcutaneously with 0.1 ml of the peptide emulsion. […] Mice were clinically scored as follows: 0, no paralysis; 1, tail weakness or paralysis; 2, hindlimb weakness or paralysis; 3, hindlimb paralysis and forelimb weakness; 4, hindlimb and forelimb paralysis; and 5, moribund or death. […]

[6] = system: lymph node cells and spleen cells from EAE donors; test: Cytokine profile determination by ELISA; assay type: cell-based, mouse
Description: Cytokine Profile Determination. Lymph node cells and spleen cells from EAE donors were stimulated in vitro (2.5×10^6 cells/ml) in 24-well plates with or without the encephalogenic peptide or with […] as positive control. Cell culture supernatants were collected at different time points for measurements of cytokine levels: 48 hours for IL-2, 72 hours for IFN-γ and TNF α, and 120 hours for IL-4 and IL-10. Cytokine levels were determined using specific ELISA kits for the corresponding cytokines according to the manufacturers protocols (PharMingen, San Diego, Calif., USA).

[7] = system: PLP p139-151-stimulated spleen and lymph node cells; test: Ag specific ex-vivo T cell proliferation assay; assay type: cell-based, mouse
Description: Ag specific ex-vivo T cell proliferation assay.

[8] = system: microglia and astrocytes; conditions: cited from earlier work
[9] = system: EAE in Lewis rats; test: MBPp85-99-induced EAE in Lewis rats, ordered peptides; assay type: in vivo, rat; conditions: single intraperitoneal dose of 0.5 mg peptide on day of mean disease onset
Description: FIG. 8 is a graph depicting the prevention of EAE in rats treated with ordered peptides. […] Animals were injected with an emulsion of 0.1 mg of MBPp85-99 in complete Freund's adjuvant for EAE induction. Ten days later, when the clinical manifestations of disease became apparent, a single intra peritoneal dose of peptide {SEQ ID NO:4} […] (squares), {SEQ ID NO:5} […] (triangles), or PBS (circles) was administered. Results are expressed as mean disease score of groups of six animals.
Animals. Female Lewis rats (6-8 weeks old), were purchased from Harlan Sprague Dawley (Indianapolis, Ind.)
Peptides. For immunization and disease reversal, peptides were synthesized on a peptide synthesizer (model 9050: MilliGen, Burlington, Mass.) by standard 9-fuorenylmethoxycarbonyl chemistry. Peptides were purified by HPLC. Structure was confirmed by amino acid analysis and mass spectroscopy. Peptides used for the experiments were: {SEQ ID NO:11} […] (MBPp85 99), {SEQ ID NO:4} […], {SEQ ID NO:5} […].
EAE induction. […] Rats were injected subcutaneously with 0.1 mi of the peptide emulsion.
EAE treatment. Rats previously immunized with MBPp85-99 for EAE induction were scored from day eight after peptide injection. On the day of mean disease onset, animals were injected intraperitoneally with a solution of 0.5 mg of peptide in PBS (one dose of 0.25 ml).

[10] = system: NOD mice; conditions: as proteins, under tolerizing conditions; cited from earlier work
[11] = ELISA, SJL/J mice, 1 and 10 mg/kg

## CC(C)c1c(C(=O)Nc2ccccc2)c(-c2ccccc2)c(-c2ccc(F)cc2)n1CC[C@@H](O)C[C@@H](O)CC(=O)O [atorvastatin]
[1]
  phosphorylated STAT6: phosphorylated STAT6 is seen
[2]; treatment at onset
  relapsing EAE (mean EAE score): effective in prevention of relapsing EAE
[2]; treatment begun after recovery from acute EAE
  ongoing relapsing EAE (mean EAE score): reversal of ongoing relapsing EAE
[3]
  expression of MHC II: could inhibit the expression of MHC II
[4]; daily oral 1 mg/kg or 10 mg/kg starting at the time of EAE onset, C57Bl/6 female mice
  EAE (mean EAE score): suppressed EAE induction
[4]; treatment after onset, C57Bl/6 mice
  EAE (mean EAE score): ameliorated EAE
[5]
  acute EAE progression: successfully prevented acute EAE progression
[6]; ELISA, SJL/J mice
  secretion of IL-10: observed at the higher treatment dose
[6]; [11]
  IL-4 production: induced at both treatment doses
  Production of IL-2: reduced, although to a much greater extent in mice treated with 10 mg/kg
[6]; ELISA, SJL/J mice, both treatment doses
  secretion of IFN-γ: dramatic reduction
[6]; repeated in C57BL/6 and MBP Ac1-11-specific transgenic mice
  Th2 bias (proliferation and cytokines): promoted an almost identical Th2 bias
[7]; 3H-thymidine incorporation, SJL/J mice treated with 1 or 10 mg/kg
  PLP p139-151-specific proliferative responses: suppressed in a dose-related fashion
[7]; in vitro cultures of cells from treated mice
  cell death: not observed increased cell death

## CC[C@H](C)C(=O)O[C@H]1C[C@@H](C)C=C2C=C[C@H](C)[C@H](CC[C@@H]3C[C@@H](O)CC(=O)O3)[C@H]21 [lovastatin]
[8]
  production of iNOS and proinflammatory cytokines: inhibited production of nitric oxide synthase (iNOS) and proinflammatory cytokines (TNFα, IL-1β and IL-6)

## EYYKEYYKEYYK [ordered peptide with repeated motif EYYK]
[9]
  EAE in Lewis rats (mean disease score): effective in preventing and treating experimental autoimmune encephalomyelitis; also recorded: effectively prevent and treat EAE in Lewis rats; also recorded: prevents the development of EAE

## insulin
[10]
  diabetes in NOD mice: prevents disease
